From US20070112075A1 (Forest Laboratories, Inc., priority 2005, published 2007)
Structures can show the parent of a compound that is named as a salt.

Tests used:
[1] = Stability of escitalopram oxalate in commercial formulations and in contact with bupropion hydrochloride; type: physicochemical
Description: Preferably, the bupropion and escitalopram in the oral dosage form are physically separated. The inventors have discovered that conventional formulations of escitalopram hydrobromide and escitalopram oxalate unexpectedly degrade under storage conditions. […] The escitalopram and bupropion may be separated by having separate discrete zones of the dosage form (such as different layers) for each component. Alternatively, the dosage form may include a plurality of escitalopram tablets or beads and a plurality of bupropion tablets or beads, where one or both of the escitalopram tablets/beads and bupropion tablets/beads are coated.

[2] = system: norepinephrine uptake; details: cited from earlier work
[3] = system: monoamine oxidase; details: cited from earlier work

time stable in commercial formulations ([1]; commercial formulations)	degradation rate compared with commercial formulations ([1]; stored in intimate contact with bupropion hydrochloride)	SMILES	blockade of norepinephrine uptake [2]	inhibition of monoamine oxidase [3]
about 12 months	degrades significantly more rapidly	CN(C)CCC[C@@]1(c2ccc(F)cc2)OCc2cc(C#N)ccc21 [escitalopram oxalate]	–	–
–	–	CC(NC(C)(C)C)C(=O)c1cccc(Cl)c1 (racemic) [bupropion, (±)-1-(3-chlorophenyl)-2-[(1,1-dimethylethyl)amino]-1-propanone]	weak blocker	does not inhibit
